Experimental data taken from US20150118215A1, “Methods of Inhibiting Cell Proliferation” (The General Hospital Corporation, priority 2012, published 2015).
Like-named read-outs stand apart in the source and are kept apart here.

Tests used:
cytohesin-2 = target: T1, cytohesin-2 (Homo sapiens, UniProt Q99418); assay: Radiolabel-based GEF-activity assay ([35S]-GTPγS binding) of full-length cytohesin-2 with myr-Arf1 or myr-Arf6; assay type: biochemical
T1 construct: steady-state enzymatic GEF-activity analysis of full-length cytohesin-2 or Sec7 domain with Arf1 and Arf6; made in house; host or cells: E. coli BL21DE3
T1 sequence (Q99418 1-400): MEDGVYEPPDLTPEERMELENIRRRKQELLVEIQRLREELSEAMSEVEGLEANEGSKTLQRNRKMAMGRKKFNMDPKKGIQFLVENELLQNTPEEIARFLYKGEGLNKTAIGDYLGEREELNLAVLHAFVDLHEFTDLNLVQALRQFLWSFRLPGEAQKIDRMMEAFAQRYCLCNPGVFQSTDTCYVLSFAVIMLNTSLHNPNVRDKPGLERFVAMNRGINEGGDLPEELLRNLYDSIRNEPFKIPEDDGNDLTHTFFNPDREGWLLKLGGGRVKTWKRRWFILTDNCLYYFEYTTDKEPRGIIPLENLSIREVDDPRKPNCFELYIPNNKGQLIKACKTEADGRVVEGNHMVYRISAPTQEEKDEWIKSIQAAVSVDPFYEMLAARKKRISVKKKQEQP
Experimental: Two assays were used to determine the GDP/GTP-exchange activity of both full-length cytohesin-2 and Sec7 domain.
a) Radiolabel-Based Assay.
The lipids were dissolved in chloroform. […] Proteins were trapped on nitrocellulose filters.
To test the potential signaling between V-ATPase and cytohesin-2/Arf GTP-binding proteins, a GEF-activity assay was established for cytohesin-2 (wt) and myristoylated myr-Arf6 (wt) and myr-Arf1 (wt) GTP-binding proteins (FIG. 2A). Human Arf1 was co-expressed with yeast N-myristoyltransferase in E. coli BL21/DE3 strain. Recombinant myr-Arf1 was purified from the E. coli lysate (A1) using an AKTApurifier equipped with HiTrapQ, Superdex200 columns (A2), and Phenyl Sepharose HP column (A3). Human Arf6 was also co-expressed with yeast N-myristoyltransferase in E. coli BL21/DE3 strain. Recombinant myr-Arf6 was extracted from insoluble fraction using Triton X-100 (B1). The extract was precipitated by 35% ammonium sulfate and myr-Arf6 purified with HiTrapQ column (B2). […] Several soluble, cell permeable and fluorescently labeled a2N1-17 derived peptides were synthesized, which were used in the current GEF-activity and structural studies in vitro.

[1] = target: T2, Sec7 domain of cytohesin-2 (Homo sapiens, UniProt Q99418); assay: Tryptophan fluorescence-based GTPγS binding (GEF-activity) assay of Sec7 domain; assay type: biochemical; conditions: purified Sec7 domain; truncated [Δ17]Arf1 as substrate; read-out: IC50, inhibition of enzymatic GEF-activity of Sec7 with [Δ17]Arf1
T2 construct: The Sec7 domain of human cytohesin-2 (61-252aa) was expressed in BL21/DE3 cells; GST (N, cleaved yes); made in house; host or cells: E. coli BL21/DE3
T2 sequence (Q99418 61-252): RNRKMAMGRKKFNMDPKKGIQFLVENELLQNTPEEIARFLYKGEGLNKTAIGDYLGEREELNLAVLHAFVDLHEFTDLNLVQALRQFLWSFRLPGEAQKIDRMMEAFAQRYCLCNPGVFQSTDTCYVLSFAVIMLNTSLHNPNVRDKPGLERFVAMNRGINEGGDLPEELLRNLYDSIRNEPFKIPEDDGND

Human NSCLC A549 cells = assay: Cell proliferation assays (MTT, direct cell counting); assay type: cell-based; conditions: A549, wild-type EGFR, KRas-G12S; three days treatment
Experimental: Cell Proliferation Assays—
First, MTT proliferation assay was carried out using cell growth determination kit according to manufacturer instructions (Sigma). Human NSCLC A549 cells which are expressing wild-type EGFR with KRas-G12S activation mutation were studied in these experiments. […] Medium was changed daily for three days, and cells were stained with MTT and DAPI when indicated.
Second, direct cells counting assays were also performed as follows. Microscopic images of 0.317 mm^2 area each well were acquired for MTT stained cells and cells were counted using ImageJ (NIH). […] Alternatively, the cells were stained with DAPI and microscopic images of whole wells were acquired using DeltaVision system (Applied Precision). Cells were counted using Particle Tracker PlugIn for ImageJ as above (FIG. 13).

[2] = test system: gefitinib-resistant NSCLC A549 cells; conditions: Bill et al. 2012; cited from earlier work
[3] = test system: gefitinib-resistant NSCLC H460 cells; conditions: Bill et al. 2012; cited from earlier work
H460 xenografts = conditions: Bill et al.; cited from earlier work
PC-9 xenografts = conditions: Bill et al.; cited from earlier work
EGFR/ErbB-signaling = conditions: SecinH3 or cytohesin-2 knock-down; Bill et al.; cited from earlier work
lung cancer cells = conditions: SecinH3 or cytohesin-2 knock-down; Bill et al.; cited from earlier work
tumor xenografts = conditions: SecinH3 or cytohesin-2 knock-down; Bill et al.; cited from earlier work

IC50 (cytohesin-2; myr-Arf1 as substrate, azolectin, read-out: IC50, inhibition of enzymatic GEF-activity of cytohesin-2 with myr-Arf1): > 150 µM | IC50 (cytohesin-2; myr-Arf6 as substrate, PIP2-containing liposomes, read-out: IC50, inhibition of enzymatic GEF-activity of cytohesin-2 with myr-Arf6): > 150 µM | IC50 [1]: 6.9 µM
Compound: COc1nc(-c2ccc3c(c2)OCO3)n(-c2ccc(NC(=O)CSc3ccccc3)cc2)n1 [SecinH3]
inhibition of proliferation of human lung cancer A549 cells (Human NSCLC A549 cells): anti-proliferative action | proliferation of gefitinib-resistant NSCLC A549 cells [2]: efficiently reduced | proliferation of gefitinib-resistant NSCLC H460 cells [3]: efficiently reduced | action in vivo in mice bearing H460 xenografts (H460 xenografts): anti-proliferative and pro-apoptotic action | action in vivo in mice bearing PC-9 xenografts (PC-9 xenografts): anti-proliferative and pro-apoptotic action | EGFR/ErbB-signaling (EGFR/ErbB-signaling): reduction | cancer cell proliferation in vitro (lung cancer cells): suppression | growth of tumor xenografts in nude mice model in vivo (tumor xenografts): reduction of growth
